Results reported in patent US20060166900A1, “Salt of morphine-6-glucuronide” (CeNeS Limited, priority 2002, published 2006).

Assays:
Type in all cases: physicochemical
[1] = Stability of M6G salts at room temperature over 6 years, HPLC; conditions: for Assay M6G corr.: content calculated as M6G derivative
[2] = Visual appearance on storage (Example 3)
How it was run: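 Aliquots (900 mg) kept at 2-8 °C beforehand were stored in argon-flushed brown opaque HDPE bottles at 25 °C/60% RH, 40 °C/75% RH and 60 °C. Visual appearance was assessed at set time points.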

[3] = Water content by Karl Fisher analysis on storage (Example 3)
How it was run: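 900 mg aliquots were held in argon-flushed brown opaque HDPE bottles at 25 °C/60% RH, 40 °C/75% RH and 60 °C. At each time point, water content (% w/w) was determined in duplicate on about 100 mg of equilibrated material by Karl Fischer titration.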

[4] = Colour of solution by visible spectrophotometry on storage (Example 3); conditions: 5% w/v solution in water
How it was run: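 5% w/v aqueous solution, absorbance at 420 nm in a 1 cm silica cell. Samples were stored in argon-flushed brown opaque HDPE bottles at 25° C./60% RH, 40° C./75% RH and 60° C.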

[5] = Stability indicating HPLC assay and related substances on storage (Example 3)
[6] = almost 6 years at room temperature

Which HN-33177 ([1]; 0 years) does the source give for CN1CCC23c4c5ccc(O)c4OC2C(OC2OC(C(=O)O)C(O)C(O)C2O)C=CC3C1C5.CN1CCC23c4c5ccc(O)c4OC2C(OC2OC(C(=O)O)C(O)C(O)C2O)C=CC3C1C5.O=S(=O)(O)O (centres unmarked) [Morphine-6-glucuronide sulphate] here?
Its HN-33177 is 0.2%.

What about the HN-75083 ([1]; 0 years) of the same compound?
Its HN-75083 is under 0.1%.

And the “Unknown related substances (sum area %)” value ([1]; 0 years)?
Its value is 0.2 area %.

And the “Assay M6G corr.” value ([1]; 0 years)?
The value was 93.6%.

What about the HN-33177 ([1]; 6 years at ambient temperature) of the same compound?
Its HN-33177 is 0.3%.

And the HN-67002 ([1]; 6 years at ambient temperature)?
Its HN-67002 is 1.1%.

And the HN-67003 ([1]; 6 years at ambient temperature)?
The HN-67003 was 1.8%.

What about the Morphine ([1]; 6 years at ambient temperature) of the same compound?
Its Morphine is 0.2%.

And the “Unknown related substances (sum area %)” value ([1]; 6 years at ambient temperature)?
Its value is 10.7 area %.

And the “Assay M6G corr.” value ([1]; 6 years at ambient temperature)?
The value was 76.8%.

What about the HN-33177 ([1]; 6 years at ambient temperature, listed as M6G2.H2SO4) of the same compound?
The HN-33177 was “did not change”.

What about the largest unidentified peak [1, 6] of the same compound?
The largest unidentified peak was 6.55 area %.

What about the “peaks present in the chromatogram that cannot be identified by retention time” value [1, 6] of the same compound?
The value was 13.

And the Appearance ([2]; 1 month, 25° C./60% RH)?
The Appearance was “White crystalline powder”.

What about the Appearance ([2]; 1 month, 40° C./75% RH) of the same compound?
Its Appearance is “Slightly yellow crystalline powder”.

And the Appearance ([2]; 1 month, 60° C.)?
The Appearance was “Pale yellow crystalline powder”.

What about the Appearance ([2]; 3 months, 25° C./60% RH) of the same compound?
Its Appearance is “Pale yellow crystalline powder”.

What about the Appearance ([2]; 3 months, 40° C./75% RH) of the same compound?
The Appearance was “Slightly yellow crystalline powder”.

And the Appearance ([2]; Initial)?
The Appearance was “White crystalline powder”.

What about the Moisture ([3]; 1 month, 25° C./60% RH) of the same compound?
Its Moisture is 4.28 % w/w.

And the Moisture ([3]; 1 month, 40° C./75% RH)?
Its Moisture is 5.93 % w/w.

What about the Moisture ([3]; 1 month, 60° C.) of the same compound?
Its Moisture is 4.68 % w/w.

And the Moisture ([3]; 3 months, 25° C./60% RH)?
The Moisture was 5.54 % w/w.

What about the Moisture ([3]; 3 months, 40° C./75% RH) of the same compound?
Its Moisture is 8.31 % w/w.

And the Moisture ([3]; Initial)?
Its Moisture is 3.77 % w/w.

And the Colour ([4]; 1 month, 25° C./60% RH)?
The Colour was 0.244 Abs@420 nm.

And the Colour ([4]; 1 month, 40° C./75% RH)?
The Colour was 0.430 Abs@420 nm.

What about the Colour ([4]; 1 month, 60° C.) of the same compound?
Its Colour is 1.714 Abs@420 nm.

What about the Colour ([4]; 3 months, 25° C./60% RH) of the same compound?
The Colour was 0.406 Abs@420 nm.

And the Colour ([4]; 3 months, 40° C./75% RH)?
The Colour was 1.056 Abs@420 nm.

And the Colour ([4]; Initial)?
Its Colour is 0.136 Abs@420 nm.

What about the “Known Related Substances HN33177” value ([5]; 1 month, 25° C./60% RH) of the same compound?
The value was 0.63%.

And the “Known Related Substances HN67003” value ([5]; 1 month, 25° C./60% RH)?
The value was 0.69%.

And the “Known Related Substances HN75083” value ([5]; 1 month, 25° C./60% RH)?
The value was 0.27%.

What about the “M6G Assay, Anhydrous basis” value ([5]; 1 month, 25° C./60% RH) of the same compound?
Its value is 81.82 % w/w.

What about the “M6G Assay, As is basis” value ([5]; 1 month, 25° C./60% RH) of the same compound?
The value was 73.58 % w/w.

What about the “M6G Assay, Corrected for the salt form” value ([5]; 1 month, 25° C./60% RH) of the same compound?
The value was 90.51 % w/w.

And the “Total Known” value ([5]; 1 month, 25° C./60% RH)?
The value was 1.59%.

What about the “Total Related Substances” value ([5]; 1 month, 25° C./60% RH) of the same compound?
Its value is 4.29%.

What about the “Total Unknown” value ([5]; 1 month, 25° C./60% RH) of the same compound?
Its value is 2.70%.

And the “Known Related Substances HN33177” value ([5]; 1 month, 40° C./75% RH)?
The value was 0.50%.

And the “Known Related Substances HN67003” value ([5]; 1 month, 40° C./75% RH)?
Its value is 1.58%.

And the “Known Related Substances HN75076” value ([5]; 1 month, 40° C./75% RH)?
The value was 0.06%.

What about the “Known Related Substances HN75083” value ([5]; 1 month, 40° C./75% RH) of the same compound?
Its value is 0.74%.

What about the “Known Related Substances Morphine” value ([5]; 1 month, 40° C./75% RH) of the same compound?
The value was 0.21%.

What about the “M6G Assay, Anhydrous basis” value ([5]; 1 month, 40° C./75% RH) of the same compound?
Its value is 73.67 % w/w.

What about the “M6G Assay, As is basis” value ([5]; 1 month, 40° C./75% RH) of the same compound?
Its value is 65.04 % w/w.

And the “M6G Assay, Corrected for the salt form” value ([5]; 1 month, 40° C./75% RH)?
Its value is 81.50 % w/w.

What about the “Total Known” value ([5]; 1 month, 40° C./75% RH) of the same compound?
The value was 3.09%.

And the “Total Related Substances” value ([5]; 1 month, 40° C./75% RH)?
The value was 9.78%.

What about the “Total Unknown” value ([5]; 1 month, 40° C./75% RH) of the same compound?
The value was 6.69%.

And the “Known Related Substances HN33177” value ([5]; 1 month, 60° C.)?
Its value is 0.23%.

What about the “Known Related Substances HN67003” value ([5]; 1 month, 60° C.) of the same compound?
Its value is 2.73%.

And the “Known Related Substances HN75076” value ([5]; 1 month, 60° C.)?
The value was 0.26%.

What about the “Known Related Substances HN75083” value ([5]; 1 month, 60° C.) of the same compound?
Its value is 0.61%.

And the “Known Related Substances Morphine” value ([5]; 1 month, 60° C.)?
The value was 0.72%.

What about the “M6G Assay, Anhydrous basis” value ([5]; 1 month, 60° C.) of the same compound?
The value was 63.84 % w/w.

And the “M6G Assay, As is basis” value ([5]; 1 month, 60° C.)?
The value was 57.15 % w/w.

And the “M6G Assay, Corrected for the salt form” value ([5]; 1 month, 60° C.)?
Its value is 70.62 % w/w.

What about the “Total Known” value ([5]; 1 month, 60° C.) of the same compound?
The value was 4.55%.

And the “Total Related Substances” value ([5]; 1 month, 60° C.)?
The value was 18.25%.

What about the “Total Unknown” value ([5]; 1 month, 60° C.) of the same compound?
Its value is 13.70%.

And the “Known Related Substances HN33177” value ([5]; 3 months, 25° C./60% RH)?
The value was 0.52%.

And the “Known Related Substances HN67003” value ([5]; 3 months, 25° C./60% RH)?
The value was 1.36%.

And the “Known Related Substances HN75083” value ([5]; 3 months, 25° C./60% RH)?
The value was 0.53%.

What about the “Known Related Substances Morphine” value ([5]; 3 months, 25° C./60% RH) of the same compound?
The value was 0.17%.

And the “M6G Assay, Anhydrous basis” value ([5]; 3 months, 25° C./60% RH)?
Its value is 77.05 % w/w.

And the “M6G Assay, As is basis” value ([5]; 3 months, 25° C./60% RH)?
The value was 69.08 % w/w.

What about the “M6G Assay, Corrected for the salt form” value ([5]; 3 months, 25° C./60% RH) of the same compound?
Its value is 85.24 % w/w.

What about the “Total Known” value ([5]; 3 months, 25° C./60% RH) of the same compound?
The value was 2.58%.

What about the “Total Related Substances” value ([5]; 3 months, 25° C./60% RH) of the same compound?
Its value is 9.16%.

What about the “Total Unknown” value ([5]; 3 months, 25° C./60% RH) of the same compound?
The value was 6.58%.

What about the “Known Related Substances HN33177” value ([5]; 3 months, 40° C./75% RH) of the same compound?
The value was 0.23%.

And the “Known Related Substances HN67003” value ([5]; 3 months, 40° C./75% RH)?
The value was 1.72%.

What about the “Known Related Substances HN75076” value ([5]; 3 months, 40° C./75% RH) of the same compound?
The value was 0.04%.

What about the “Known Related Substances HN75083” value ([5]; 3 months, 40° C./75% RH) of the same compound?
The value was 0.58%.

And the “Known Related Substances Morphine” value ([5]; 3 months, 40° C./75% RH)?
The value was 0.37%.

What about the “M6G Assay, Anhydrous basis” value ([5]; 3 months, 40° C./75% RH) of the same compound?
Its value is 68.38 % w/w.

What about the “M6G Assay, As is basis” value ([5]; 3 months, 40° C./75% RH) of the same compound?
The value was 59.39 % w/w.

And the “M6G Assay, Corrected for the salt form” value ([5]; 3 months, 40° C./75% RH)?
The value was 75.64 % w/w.

And the “Total Known” value ([5]; 3 months, 40° C./75% RH)?
The value was 2.75%.

And the “Total Related Substances” value ([5]; 3 months, 40° C./75% RH)?
Its value is 17.98%.

And the “Total Unknown” value ([5]; 3 months, 40° C./75% RH)?
Its value is 15.23%.

And the stability assessment ([5]; 25° C./60% RH, three months)?
The stability assessment was “least stable”.

What about the “Known Related Substances HN33177” value ([5]; Initial) of the same compound?
Its value is 0.69%.

What about the “Known Related Substances HN67003” value ([5]; Initial) of the same compound?
The value was 0.15%.

And the “Known Related Substances HN75076” value ([5]; Initial)?
Its value is 0.01%.

And the “Known Related Substances HN75083” value ([5]; Initial)?
Its value is 0.23%.

What about the “M6G Assay, Anhydrous basis” value ([5]; Initial) of the same compound?
The value was 88.49 % w/w.

And the “M6G Assay, As is basis” value ([5]; Initial)?
The value was 80.62 % w/w.

And the “M6G Assay, Corrected for the salt form” value ([5]; Initial)?
Its value is 97.87 % w/w.

And the “Total Known” value ([5]; Initial)?
The value was 1.08%.

And the “Total Related Substances” value ([5]; Initial)?
Its value is 1.72%.

And the “Total Unknown” value ([5]; Initial)?
Its value is 0.64%.

What about the overall stability comparison ([5]; overall review of Example 3 data) of the same compound?
The overall stability comparison was “least stable”.
